Laboratory results published in patent US9649303B2, “Methods and treatment for allergies and inflammation associated with gastrointestinal diseases” (MASTCELL PHARMACEUTICALS, INC., priority 2008, dated 2017).

Experiments:
[1] = tested on: patients who have a history of GERD, unresponsive to conventional proton pump inhibitors or antacids; test: GERD patients unresponsive to proton pump inhibitors or antacids: ketotifen vs omeprazole (Example 5); type: in vivo, human; conditions: ketotifen 0.5 mg, 1 mg, 2 mg twice daily or omeprazole 1×20 mg/d
Method: To evaluate the effectiveness of ketotifen in patients who have a history of GERD, but are unresponsive to conventional proton pump inhibitors or antacids, two groups of patients are tested as similar to Example 4. One group is administered ketotifen at 0.5 mg, 1 mg, 2 mg, twice daily. The second group is treated with omeprazole, 1×20 mg/d. Sera IgE are evaluated before and after administration of ketotifen or omeprazole and gastrointestinal symptoms are recorded based on severity and frequency of symptoms.

[2] = tested on: a patient with eosinophilic esophagitis; conditions: elimination of diet including eggs, treatment with ketotifen and montelukast; cited from earlier work
eosinophils = conditions: cited from earlier work
[3] = tested on: OVA sensitized female BALB/c mice; test: Sensitization to new allergen in a model of pre-existing food allergy (Example 6); type: in vivo
Method: A study is conducted to determine whether atopic animals are more easily sensitized to a newly introduced allergen (e.g., hazel nut). Four groups of female BALB/c mice (7-8 weeks old) are sensitized by intraperitoneal (IP) injections 2 weeks apart with ovalbumin (OVA; 50 μg) in 1.3% aluminum hydroxide (200 μl) followed 2 weeks later by 7 seven intragastric challenges (every other day) with saline or 5, 10, or 50 mg OVA, a selected dose of hazel nut, or combination of OVA and hazelnut. Endpoints include observance of diarrhea after intragastric challenge, Serum total and antigen specific IgE and IgG 1, gut to body weight ratio, intestinal permeability, and histological evaluation are performed. […] A second experiment assesses the ability of ketotifen to inhibit the induction of allergy to a newly introduced food allergen in animals with a pre-existing gastrointestinal allergy. […] A group of BALB/c mice similarly sensitized to OVA, but continuing to receive intragastric hazel nut in the absence of intragastric OVA fails to develop an observable gastrointestinal allergy phenotype.

PAF production = conditions: cited from earlier work
[4] = tested on: patients undergoing desensitization to oral allergen (hazelnut); test: Desensitization to oral allergen with hazelnut extract plus ketotifen (Example 3); type: in vivo, human; conditions: ketotifen plus hazelnut extract immunotherapy vs immunotherapy alone
Excerpt: To evaluate the efficacy of ketotifen in desensitization process against oral allergen such as hazelnut, a similar study as described in Example […] may be carried out except with the use of hazelnut extract rather than ragweed extract.

[5] = tested on: adult patients who have a history of GERD; test: GERD patients on omeprazole, ketotifen or both: GI symptoms and allergen-specific serum IgE (Example 4); type: in vivo, human
Method: The following study may be carried out to analyze the effectiveness of mast cell stabilizer in treating gastrointestinal disorders and/or as a prophylaxis against the development of allergy in patients at risk of developing sensitivity to such allergen, e.g., sensitivity to hazelnut, when exposed to it.
Sera of nine adult patients who have a history of GERD are collected. None of the patients report adverse reactions to inhalant or food allergens; however, IgE immunoblots are performed to screen their allergic state. Three patients from Group A are administered a proton pump inhibitor, e.g, omeprazole (Group A-1). Three patients from Group A are administered an oral dose of 0.5, 1, or 2 mg of ketotifen orally twice daily (Group A-2). […]
Serum IgE and Skin Tests in Patients: Sera are tested for allergen-specific IgE against hazelnut and inhalative allergens from tree pollen (eg, birch, hazel, and alder), grass pollen, weed pollen, molds, house dust mites, insect venoms, and animal dander. […] Additionally, total IgE is determined before and at the 3-mo time point. […]
Gastrointestinal Symptoms: Symptoms of gastrointestinal side effects such as GERD, nausea, abdominal pain, vomiting, gastritis and/or dyspepsia are recorded based on the severity and frequency of the symptoms. […]

[6] = tested on: patients who have a diagnosis of eosinophilic esophagitis and food allergy; test: Eosinophilic esophagitis: ketotifen oral tablet vs topical gel (Example 7); type: in vivo, human
Method: To evaluate the effectiveness of ketotifen in patients who have a diagnosis of eosinophilic esophagitis and food allergy, two groups of patients will be tested. One group is orally administered ketotifen at 0.5 mg, 1 mg, or 2 mg, twice daily as a tablet.

[7] = tested on: patients undergoing desensitization to airborne allergen (ragweed); test: One-day rush immunotherapy with short ragweed extract after ketotifen or placebo pretreatment (Example 2); type: in vivo, human; conditions: ketotifen 1 mg b.i.d. plus ragweed immunotherapy vs immunotherapy alone
Method: To evaluate the effectiveness of mast cell stabilizer, e.g., ketotifen, in desensitization or immunotherapy, particularly RUSH immunotherapy, a randomized, double-blind, placebo-controlled study is performed. Patients are randomly assigned to 4 treatment groups (1:1:1:1). Pretreatment with either ketotifen, 1 mg, b.i.d., or placebo, is carried out for nine weeks to protect, prevent, inhibit or ameliorate allergic reaction, particularly to prevent, normalize or ameliorate gastrointestinal symptoms. One-day rush immunotherapy (week 0) is completed at least 3 weeks before the start of the ragweed season. On the day of rush immunotherapy, the patients receive 6 injections of either placebo or aqueous short ragweed extract. Ragweed dosing starts with a diluted extract containing 0.012 μg of Amb a 1 (a major allergen in ragweed) over a 3-hour period, reaching a maximum of 1.2 μg of Amb a 1. […]
The efficacy end point is determined by comparing the average daily allergy severity scores (measured on a scale of 0-3) between patients receiving ketotifen plus immunotherapy versus those who receive just immunotherapy alone. The score is calculated from the average of individual scores for symptoms of gastrointestinal disorders, e.g., abdominal pain, nausea, diarrhea, and/or heartburn.

[8] = tested on: patients with a history of hazelnut allergy; test: Oral food challenge with hazelnut flour under ketotifen or placebo (Example 1); type: in vivo, human
Method: Twenty-four patients with adverse food reaction are included in this study. As controls, twelve patients matched for age and gender and a history of GERD (Group A) and another twelve patients matched for age and gender and no history of any gastrointestinal disorder (Group B) are included. The history of use of antacids and satisfaction are recorded for both groups.
To analyze hypersensitivity to hazelnut, a double-blind, randomized, dose-ranging study is carried out with patients with a history of hazelnut allergy manifested by urticaria, angioedema, respiratory tract symptoms or hypotension generally using the methods described in Israel et al., Am. J. Respir. Crit. Care Med., (2000) 164:75-80. Eligible patients include those with serum total IgE level of 30-1000 IU/mL and/or a positive skin-prick test to hazelnut. […]
Before enrollment, threshold level for reactivity to hazelnut allergen is confirmed by a screening double-blind, placebo-controlled oral food challenge. […] Vital signs are checked, chest auscultation is performed, and peak expiratory flow rates are monitored every 30 minutes during the food challenge and for at least 2 hours after the last dose or the abatement of any symptoms or signs. […]
Peak expiratory flow rates are monitored every 30 minutes during food challenge for at least 2 hours after the last does or abatement of any symptoms or signs. […]

[9] = tested on: sensitization to previously tolerated ovalbumin; conditions: co-administered with ovalbumin; via elevation of the gastric pH; cited from earlier work

| Compound | GERD symptoms [1] | allergen specific IgE in blood sera [1] | clinical outcome [2] | eosinophil chemotaxis (eosinophils) | development of new sensitivity to hazel nut ([3]; OVA sensitized mice receiving intragastric hazelnut with ketotifen or OVA plus hazelnut with ketotifen) | gastrointestinal allergy phenotype upon OVA intragastric challenge ([3]; female BALB/c mice sensitized to OVA) | PAF production (PAF production) | adverse events of gastrointestinal disorders [4] | allergy severity scores [4] | hazelnut-specific (and other allergen specific) IgE in blood sera ([5]; after onset of treatment, Groups A-1, A-2, A-3) | GERD symptoms ([5]; omeprazole 1×20 mg/d (A-1), ketotifen 0.5, 1 or 2 mg orally twice daily (A-2), both (A-3)) | patient-reported symptoms ([6]; ketotifen 0.5 mg, 1 mg or 2 mg twice daily as oral tablet) | overall effectiveness compared between formulations ([6]; oral tablet vs topical gel vs topical corticosteroids) | blood eosinophilia ([6]; oral tablet, blood analysis) | eosinophils, mast cells and degranulation in esophageal biopsies ([6]; oral tablet, compared to pre-treatment biopsies) | adverse events of gastrointestinal disorders [7] | allergy severity scores ([7]; scale of 0-3) | reflux symptom reporting during the study ([8]; GERD patients, Group A1 (ketotifen) vs Group A2 (placebo)) | tolerance (severity of reaction) to hazelnut upon oral ingestion ([8]; ketotifen 0.5, 1 or 2 mg orally twice daily, Group A-1 and B-1 compared to placebo groups A-2 and B-2, challenge at two, four and six weeks) | sensitization to previously tolerated ovalbumin [9] |
| --- | --- | --- | --- | --- | --- | --- | --- | --- | --- | --- | --- | --- | --- | --- | --- | --- | --- | --- | --- | --- |
| CN1CCC(=C2c3ccccc3CC(=O)c3sccc32)CC1 [ketotifen] | improved GERD symptoms | few new allergen specific IgE | clinical relief | inhibiting chemotaxis | fail to develop new sensitivity to hazel nut | significantly suppresses the gastrointestinal allergy phenotype | suppresses PAF production | fewer adverse events of gastrointestinal disorders | significantly improved allergy severity scores | improved GERD symptoms and hazelnut-specific IgE | improved GERD symptoms | partial improvement of symptoms | inferior to those observed with the topical gel formulation | decreased eosinophilia | fewer numbers of eosinophils and mast cells and less degranulation | fewer adverse events of gastrointestinal disorders | significantly improved allergy severity scores | significantly lower | significant increased tolerance |  |
| sucralfate |  |  |  |  |  |  |  |  |  |  |  |  |  |  |  |  |  |  |  | caused sensitization to previously tolerated ovalbumin |
